Data: US20030119895A1, “Methods using a combination of a 3-heteroaryl-2-indolinone and a cyclooxygenase-2 inhibitor for the treatment of neoplasia” (Pharmacia Corporation, priority 1998, published 2003)
“And” between values parts separate entries of the source, which are not always exact repeats. Equal values may be shown once.

What was measured:
[1] = system: fibroblast growth factor-induced corneal angiogenesis; settings: rats; cited from earlier work
[2] = system: 3T3/E/H+TGF-a(T) (NIH 3T3 cells expressing EGFR/HER2 chimera and TGF-a); test: SRB Assay 1: 3T3/E/H+TGF-a(T) Cell Growth SRB Assay; format: cell-based; settings: Mus musculus, NIH3T3, SRB Readout
[3] = system: HUV-EC-C cells (human umbilical vein endothelial cells); test: HUV-EC-C Assay, VEGF-stimulated [3H] thymidine incorporation; format: cell-based; settings: Homo sapiens, HUVEC, Mitogenesis in Endothelial Cells
[4] = system: HUV-EC-C cells (human umbilical vein endothelial cells); test: HUV-EC-C Assay, a-FGF (ECGF)-stimulated [3H] thymidine incorporation; format: cell-based; settings: Homo sapiens, HUVEC, Mitogenesis in Endothelial Cells
Protocol: The following protocol may also be used to measure the composition's activity:
1. […] After cells have detached from the flask, add an equal volume of assay medium and transfer to a 50 ml sterile centrifuge tube (Fisher Scientific; catalogue no. 05-539-6).
2. Wash the cells with about 35 ml assay medium in the 50 ml sterile centrifuge, tube by adding the assay medium, centrifuge for 10 minutes at approximately 200× g, aspirate the supernatant, and resuspend with 35 ml D-PBS. Repeat the wash two more times with D-PBS, resuspend the cells in about 1 ml assay medium/15 cm^2 of tissue culture flask. Assay medium consists of F12K medium (Gibco BRL; catalogue no. 21127-014)+0.5% heat-inactivated fetal bovine serum. Count the cells with a Coulter Counter.RTM.v Coulter Electronics, Inc.) and add assay medium to the cells to obtain a concentration of 0.8-1.0×10^5 cells/ml.
3. Add cells to 96-well flat-bottom plates at 100 μl/well or 0.8-1.0×10^4 cells/well; incubate about 24 h at 37° C., 5% CO2.
1. Make up two-fold drug titrations in separate 96-well plates, generally 50 μM on down to 0 μM. Use the same assay medium as mentioned in day 0, step 2 above. Titrations are made by adding […] of drug at 200 μM (4× the final well concentration) to the top well of a particular plate column. Since the stock drug concentration is usually 20 mM in DMSO, the 200 μM drug concentration contains 2% DMSO. Therefore, diluent made up to 2% DMSO in assay medium (F12K+0.5% fetal bovine serum) is used as diluent for the drug titrations in order to dilute the drug but keep the DMSO concentration constant. Add this diluent to the remaining wells in the column at 60 μl/well. Take 60 μl from the 120 μl of 200 μM drug dilution in the top well of the column and mix with the 60 μl in the second well of the column. Take 60 μl from this well and mix with the 60 μl in the third well of the column, and so on until two-fold titrations are completed. When the next-to-the-last well is mixed, take 60 μl of the 120 μl in this well and discard it. Leave the last well with 60 μl of DMSO/media diluent as a non-drug-containing control. Make 9 columns of titrated drug, enough for triplicate wells each for 1) VEGF (obtained from Pepro Tech Inc., catalogue no. 100-200, 2) endothelial cell growth factor (ECGF) (also known as acidic fibroblast growth factor, or aFGF) (obtained from Boehringer Mannheim Biochemica, catalogue no. 1439 600), and assay media control. ECGF comes as a preparation with sodium heparin.
2. Transfer 50 μl/well of the drug dilutions to the 96-well assay plates containing the 0.8-1.0×10^4 cells/100 μl/well of the HUV-EC-C cells from day 0 and […] incubate ~2 h at 37° C., 5% CO2.
3. In triplicate, add 50 μl/well of 80 ng/ml VEGF, 20 ng/ml ECGF, or media control to each drug condition. As with the drugs, the growth factor concentrations are 4× the desired final concentration. Use the assay media from day 0 step 2 to make the concentrations of growth factors. Incubate approximately 24 hours at 37° C., 5% CO2. Each well will have 50 μl drug dilution, 50 μl growth factor or media, and 100 ul cells,=200 ul/well total. Thus the 4× concentrations of drugs and growth factors become 1× once everything has been added to the wells.
1. Add ^3H-thymidine (Amersham; catalogue no. TRK-686) at 1 μCi/well (10 μl/well of 100 μCi/ml solution made up in RPMI media+10% heat-inactivated fetal bovine serum) and incubate about 24 h at 37° C., 5% CO2.
Note: ^3H-thymidine is made up in RPMI media because all of the other applications for which we use the ^3H-thymidine involve experiments done in RPMI. The media difference at this step is probably not significant. RPMI was obtained from Gibco BRL, catalogue no. 11875-051.
1. Freeze plates overnight at −20° C.
1. Thaw plates and harvest with a 96-well plate harvester (Tomtec Harvester 96.RTM.) onto filter mats (Wallac; catalogue no. 1205-401); read counts on a Wallac Betaplate™ liquid scintillation counter.

EpH4-VEGF = test: Xenograft Assay 2: FLK-1/Xenograft Model, subcutaneous xenograft (In Vivo Data, EpH4-VEGF); parameters: species or system mice
Protocol: Assay 2: FLK-1/Xenograft Model
The ability of the compounds of the present invention to inhibit ovarian, melanoma, prostate, lung and mammary tumor cell lines established as SC xenografts was examined. These studies were conducted using doses ranging from 1 to 75 mg/kg/day.
Materials And Methods. The tumor cells were implanted subcutaneously into the indicated strains of mice. Treatment was initiated on day 1 post implantation unless otherwise indicated (e.g. treatment of the SCID mouse related to the A375 melanoma cell line began on Day 9). Eight (8) to sixteen (16) mice comprised each test group.
Animals. Female athymic mice (BALB/c, nu/nu), BALB/c mice, Wistar rats and Fisher 344 rats were obtained from Simonsen Laboratories (Gilroy, Calif.). Female A/I mice were obtained from Jackson Laboratory (Bar Harbor, Me.). DA rats were obtained from B&K Universal, Inc. (Fremont, Calif.). Athymic R/Nu rats, DBA/2N mice, and BALB/c mice were obtained from Harlan Sprague Dawley (Indianapolis, Ind.). Female C57BU6 mice were obtained from Taconic (Germantown, N.Y.). All animals were maintained under clean-room conditions in Micro-isolator cages with Alpha-dri bedding. They received sterile rodent chow and water ad libitum.
All procedures were conducted in accordance with the NIH Guide for the Care and Use Of Laboratory Animals.
Subcutaneous Xenograft Model. Cell lines were grown in appropriate medium as described. Cells were harvested at or near confluency with 0.05% Trypsin-EDTA and pelleted at 450×g for 10 min. Pellets were resuspended in sterile PBS or media (without FBS) to a suitable concentration indicated in the Figure legends and the cells were implanted into the hindflank of mice. Tumor growth-was measured over 3 to 6 weeks using venier calipers and tumor volumes were calculated as a product of length x width x height unless otherwise indicated. P values were calculated using the Students' t-test.
Different concentrations of a compound in 50-100 μl excipient (dimethylsulfoxide, PBTE, PBTE6C:D5W, or PBTE:D5W) were delivered by IP injection.
Results for various compounds obtained from the above-described in vivo assays are set forth at Table 5, below: […]

PDGFR = molecular target: T1, PDGFR (Homo sapiens, UniProt P09619); test: PDGF-R ELISA (U1242 cells); format: cell-based; settings: ELISA Assay Results
T1 construct: other: ELISA Assay Results; U1242 cells
T1 sequence (P09619 33-1106): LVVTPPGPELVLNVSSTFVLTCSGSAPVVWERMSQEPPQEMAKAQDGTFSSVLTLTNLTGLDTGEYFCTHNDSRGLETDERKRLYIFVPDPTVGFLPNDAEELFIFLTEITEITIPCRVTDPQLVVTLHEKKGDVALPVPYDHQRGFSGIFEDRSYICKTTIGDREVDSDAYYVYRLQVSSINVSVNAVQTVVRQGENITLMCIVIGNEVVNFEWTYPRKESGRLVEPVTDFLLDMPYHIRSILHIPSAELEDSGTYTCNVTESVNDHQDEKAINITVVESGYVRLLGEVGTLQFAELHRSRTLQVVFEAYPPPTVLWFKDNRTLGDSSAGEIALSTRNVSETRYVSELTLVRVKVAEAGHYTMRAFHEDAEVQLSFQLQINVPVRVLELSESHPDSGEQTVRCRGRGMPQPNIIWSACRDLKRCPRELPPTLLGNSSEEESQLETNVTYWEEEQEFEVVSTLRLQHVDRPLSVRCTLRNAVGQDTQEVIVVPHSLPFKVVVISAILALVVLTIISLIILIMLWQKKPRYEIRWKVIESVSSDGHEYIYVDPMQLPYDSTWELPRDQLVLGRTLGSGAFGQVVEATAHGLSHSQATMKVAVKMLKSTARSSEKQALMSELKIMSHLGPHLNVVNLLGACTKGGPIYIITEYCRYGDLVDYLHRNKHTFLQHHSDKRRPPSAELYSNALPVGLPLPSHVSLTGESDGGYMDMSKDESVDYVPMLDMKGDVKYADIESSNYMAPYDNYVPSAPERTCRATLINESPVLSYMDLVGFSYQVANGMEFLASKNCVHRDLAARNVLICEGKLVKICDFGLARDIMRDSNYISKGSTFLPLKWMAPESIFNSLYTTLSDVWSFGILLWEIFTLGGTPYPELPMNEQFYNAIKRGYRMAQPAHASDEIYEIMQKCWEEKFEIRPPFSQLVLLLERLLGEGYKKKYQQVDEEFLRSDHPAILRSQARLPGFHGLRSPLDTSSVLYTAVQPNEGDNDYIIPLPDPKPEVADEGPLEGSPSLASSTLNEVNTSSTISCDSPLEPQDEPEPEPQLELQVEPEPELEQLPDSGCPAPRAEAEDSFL

FLK-1 receptor = molecular target: T2, FLK-1 receptor (Mus musculus, UniProt P35918); test: FLK-1 ELISA (kinase activity of the FLK-1 receptor in FLK-1/NIH3T3 cells); format: cell-based; settings: ELISA Assay Results, VEGF stimulation
T2 construct: expressed in transfected cells; host or cells: NIH3T3 C7#3 (FLK-1/NIH3T3)
T2 sequence (P35918 20-1345): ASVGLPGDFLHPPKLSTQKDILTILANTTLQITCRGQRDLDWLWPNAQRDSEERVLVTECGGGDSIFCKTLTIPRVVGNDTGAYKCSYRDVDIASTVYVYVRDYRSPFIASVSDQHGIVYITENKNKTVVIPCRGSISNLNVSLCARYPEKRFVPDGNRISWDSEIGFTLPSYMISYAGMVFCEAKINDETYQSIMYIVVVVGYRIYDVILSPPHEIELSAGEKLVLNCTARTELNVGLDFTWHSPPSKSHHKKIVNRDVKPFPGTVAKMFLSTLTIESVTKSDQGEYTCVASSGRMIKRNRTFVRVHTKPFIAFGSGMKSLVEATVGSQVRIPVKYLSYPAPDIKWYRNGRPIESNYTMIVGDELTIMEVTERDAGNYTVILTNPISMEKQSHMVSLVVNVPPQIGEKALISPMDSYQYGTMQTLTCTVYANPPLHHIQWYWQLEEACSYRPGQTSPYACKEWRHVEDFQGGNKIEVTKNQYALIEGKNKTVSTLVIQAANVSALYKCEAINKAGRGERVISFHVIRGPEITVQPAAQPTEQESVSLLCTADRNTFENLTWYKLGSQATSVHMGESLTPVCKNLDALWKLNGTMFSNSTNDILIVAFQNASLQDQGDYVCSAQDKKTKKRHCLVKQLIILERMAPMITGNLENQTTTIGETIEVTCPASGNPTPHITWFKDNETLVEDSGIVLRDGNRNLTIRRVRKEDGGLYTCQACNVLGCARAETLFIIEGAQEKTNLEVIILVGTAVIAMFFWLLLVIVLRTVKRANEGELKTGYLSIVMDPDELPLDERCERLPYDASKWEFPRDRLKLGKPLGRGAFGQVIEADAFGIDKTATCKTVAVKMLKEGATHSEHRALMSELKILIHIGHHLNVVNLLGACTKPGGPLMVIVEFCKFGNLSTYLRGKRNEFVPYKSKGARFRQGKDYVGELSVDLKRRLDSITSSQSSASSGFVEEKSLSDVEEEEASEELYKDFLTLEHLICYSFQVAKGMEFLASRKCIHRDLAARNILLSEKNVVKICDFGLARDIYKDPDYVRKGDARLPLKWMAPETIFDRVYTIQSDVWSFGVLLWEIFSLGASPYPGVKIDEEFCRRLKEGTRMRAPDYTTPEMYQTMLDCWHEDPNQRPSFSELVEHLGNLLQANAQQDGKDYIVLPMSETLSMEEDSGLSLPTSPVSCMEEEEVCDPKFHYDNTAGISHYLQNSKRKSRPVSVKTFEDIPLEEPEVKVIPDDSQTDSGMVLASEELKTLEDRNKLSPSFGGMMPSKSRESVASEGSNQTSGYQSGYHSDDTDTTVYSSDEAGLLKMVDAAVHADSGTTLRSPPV

HER2 kinase = molecular target: T3, HER2 kinase (Homo sapiens, UniProt P04626); test: HER-2 ELISA Assay 1: EGF Receptor-HER2 Chimeric Receptor Assay In Whole Cells; format: cell-based; settings: ELISA Assay Results
T3 construct: fused on or other part: The EGFR extracellular domain serves for EGF stimulation and for capture by mAb 05-101; The HER2 part carries the kinase domain; P00533 (Epidermal growth factor receptor)
T3 sequence (P04626 720-987 limits assumed): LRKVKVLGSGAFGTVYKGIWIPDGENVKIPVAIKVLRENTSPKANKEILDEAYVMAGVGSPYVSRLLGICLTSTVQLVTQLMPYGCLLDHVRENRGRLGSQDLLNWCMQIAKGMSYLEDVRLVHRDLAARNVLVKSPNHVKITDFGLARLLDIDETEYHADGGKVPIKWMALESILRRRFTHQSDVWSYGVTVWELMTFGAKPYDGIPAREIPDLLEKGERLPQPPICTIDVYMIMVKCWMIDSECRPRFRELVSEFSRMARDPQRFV

[5] = system: 3T3/PDGF-βR/PDGF-BB(T) (NIH 3T3 cells expressing PDGFβ-receptor and PDGF-BB); test: SRB Assay 3: 3T3/PDGF-βR/PDGF-BB(T) Cell Growth SRB Assay; format: cell-based; settings: Mus musculus, NIH3T3, SRB Readout, read-out: 3T3/PDGFR + PDGF (T) IC50
Protocol: Assay 3: 3T3/PDGF-βR/PDGF-BB(T) Cell Growth SRB Assay
Cell line and growth medium:
3T3/PDGF-βR/PDGF-BB(T) (NIH 3T3 clone 7 cells expressing PDGFβ-receptor and PDGF-BB, from tumors resected from athymic mice) 2% calf serum/DMEM+2 mM glutamine
This part of assay is carried out in a laminar flow hood.
1. Trypsinize cells as usual. Transfer 200 μl of cell suspension to 10 ml of isotone. Count cells on the Coulter Counter.
2. Dilute cells in growth medium to 60,000 cells/ml. Transfer 100 μl of cells to each well in a 96-well flat bottom plate to give 6000 cells/well.
3. Allow half of plate (4 rows) for each compound and quadruplicate wells for each compound concentration, a set of 4 wells for medium control and 4 wells for DMSO control.
4. Gently shake plates to allow for uniform attachment of the cells to the plate.
5. Incubate the plates at 37° C. in a 10% CO2 incubator.
Day 1: Addition of Compound: same as for Assay 1.
Day 5: Development of Assay: same as for Assay 1.
3T3/E/H+TGF-α(T): NIH 3T3 cells expressing EGFR/HER2 chimera and TGF-α, tumor-derived 3T3/EGFR+TGF-α(T): NIH 3T3 cells expressing EGFR and TGF-α, tumor-derived 3T3/PDGFR+PDGF(T): NIH 3T3 cells expressing PDGF-βR and PDGF-ββ, tumor-derived SMC: human smooth muscle cells from Clonetics

IC50 [3] [µM]	IC50 (PDGFR) [µM]	Compound	inhibition of fibroblast growth factor-induced corneal angiogenesis [1]	IC50 [2] [µM]	IC50 [4] [µM]	EpH4-VEGF % inhibition @ mg/kg (EpH4-VEGF; @ 50 mg/kg) [% @ 50]	EpH4-VEGF % inhibition @ mg/kg (EpH4-VEGF; @ 75 mg/kg)	IC50 (FLK-1 receptor) [µM]	IC50 (HER2 kinase) [µM]	IC50 [5] [µM]
–	–	Cc1ccc(-c2cc(C(F)(F)F)nn2-c2ccc(S(N)(=O)=O)cc2)cc1 [Celecoxib, celecoxib]	potent inhibition	–	–	–	–	–	–	–
1.1	–	CN(C)c1ccc(C=C2C(=O)Nc3ccccc32)cc1 [SU4312, 3-(4-Dimethylaminobenzylidenyl)-2-indolinone]	–	36	154	63	56% @ 75 and 50% @ 75	–	–	–
6.6	87.4	COc1ccc(OC)c(C=C2C(=O)Nc3ccccc32)c1 [SU4793, 3-(2,5-Dimethoxybenzylidenyl)-2-indolinone]	–	–	3.4	–	–	–	–	–

Compound	IC50 [3] [µM]	IC50 (PDGFR) [µM]	inhibition of fibroblast growth factor-induced corneal angiogenesis [1]	IC50 [2] [µM]	IC50 [4] [µM]	EpH4-VEGF % inhibition @ mg/kg (EpH4-VEGF; @ 50 mg/kg) [% @ 50]	EpH4-VEGF % inhibition @ mg/kg (EpH4-VEGF; @ 75 mg/kg)	IC50 (FLK-1 receptor) [µM]	IC50 (HER2 kinase) [µM]	IC50 [5] [µM]
O=CN1CCN(c2ccc(C=C3C(=O)Nc4ccccc43)cc2)CC1 [SU4984, 3-[4-(4-Formylpiperazin-1-yl)benzylidenyl]-2-indolinone]	0.8	–	–	–	25.8	–	–	1.6	90.2	22.2
